In PubChem BioAssay AID1918935 (Molecular Pharmacology Branch, DTP, NCI, 2023):
Several values for one entry are separate records, joined by “and”; a condition that tells them apart may be missing. Equal entries are not always repeated.

Tested on: 324938-238-R-J1-PDC complex spheroid viability
Assay: Anticancer human tumor 324938-238-R-J1-PDC patient-derived bladder carcinoma cell line growth inhibition
Conditions: for viability, T/C: stronger effect = lower value
How it was run: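 Complex spheroids of tumor cells with HUVEC and human MSCs, exposed to iadademstat combined with other agents. Each agent tested in half-log steps from near clinical Cmax (else 10 microM top), DMSO ≤0.25%.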

[1] = curve of first compound, second compound 0.1 µM
[2] = curve of first compound, second compound 0.316 µM
[3] = curve of first compound, second compound 1 µM
[4] = curve of first compound, second compound 3.16 µM
[5] = curve of first compound, second compound 10 µM
[6] = second compound 0.1 µM, first compound 0.00949 µM
[7] = second compound 0.1 µM, first compound 0.03 µM
[8] = second compound 0.1 µM, first compound 0.0949 µM
[9] = second compound 0.1 µM, first compound 0.3 µM
[10] = second compound 0.316 µM, first compound 0.00949 µM
[11] = second compound 0.316 µM, first compound 0.03 µM
[12] = second compound 0.316 µM, first compound 0.0949 µM
[13] = second compound 0.316 µM, first compound 0.3 µM
[14] = second compound 1 µM, first compound 0.00949 µM
[15] = second compound 1 µM, first compound 0.03 µM
[16] = second compound 1 µM, first compound 0.0949 µM
[17] = second compound 1 µM, first compound 0.3 µM
[18] = second compound 3.16 µM, first compound 0.00949 µM
[19] = second compound 3.16 µM, first compound 0.03 µM
[20] = second compound 3.16 µM, first compound 0.0949 µM
[21] = second compound 3.16 µM, first compound 0.3 µM
[22] = second compound 10 µM, first compound 0.00949 µM
[23] = second compound 10 µM, first compound 0.03 µM
[24] = second compound 10 µM, first compound 0.0949 µM
[25] = second compound 10 µM, first compound 0.3 µM
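Note: spheroids also contain HUVEC and human MSCs and agents combined with iadademstat; spheroids exposed to agents for 7 days before readout.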

SMILES | IC50 [1] | IC50 [2] | IC50 [3] | IC50 [4] | IC50 [5] | viability, T/C [6] | viability, T/C [7] | viability, T/C [8] | viability, T/C [9] | viability, T/C [10] | viability, T/C [11] | viability, T/C [12] | viability, T/C [13] | viability, T/C [14] | viability, T/C [15] | viability, T/C [16] | viability, T/C [17] | viability, T/C [18] | viability, T/C [19] | viability, T/C [20] | other results
Nc1ccn(C2OC(CO)C(O)C2(F)F)c(=O)n1 (configuration not stated) + NC1CC1c1ccc(-c2cccc(O)c2)cc1 | < 0.000949 µM | < 0.000949 µM | < 0.000949 µM | < 0.000949 µM | < 0.000949 µM | 6.87% | 6.29% | 6.35% | 5.04% | 5.74% | 5.98% | 5.39% | 5.59% | 5.8% | 6.74% | 5.16% | 4.64% | 7.61% | 5.95% | 5.45% | viability, T/C (second compound 0.1 µM, first compound 0.000949 µM): 11.1%; viability, T/C (second compound 0.1 µM, first compound 0.003 µM): 8.09%; viability, T/C (second compound 0.316 µM, first compound 0.000949 µM): 10.9%; viability, T/C (second compound 0.316 µM, first compound 0.003 µM): 7.27%; viability, T/C (second compound 1 µM, first compound 0.000949 µM): 11%; viability, T/C (second compound 1 µM, first compound 0.003 µM): 7.32%; viability, T/C (second compound 3.16 µM, first compound 0.000949 µM): 10.4%; viability, T/C (second compound 3.16 µM, first compound 0.003 µM): 6.79%; viability, T/C [21]: 5.23%; viability, T/C (second compound 10 µM, first compound 0.000949 µM): 15.8%; viability, T/C (second compound 10 µM, first compound 0.003 µM): 11.2%; viability, T/C [22]: 10.4%; viability, T/C [23]: 7.49%; viability, T/C [24]: 5.31%; viability, T/C [25]: 5.65%
CCN(c1cc(-c2ccc(CN3CCOCC3)cc2)cc(C(=O)NCc2c(C)cc(C)[nH]c2=O)c1C)C1CCOCC1 + NC1CCC(NC2CC2c2ccccc2)CC1 | > 3 µM | > 3 µM | > 3 µM | > 3 µM | > 3 µM | 76.4% | 75.4% | 76.7% | 77.6% | 74.5% | 83.1% | 70.5% | 74.8% | 74.5% | 74.7% | 71.5% | 81% | 67.8% | 74.7% | 71.5% | viability, T/C (second compound 0.1 µM, first compound 0.949 µM): 75.8%; viability, T/C (second compound 0.1 µM, first compound 3 µM): 77.6%; viability, T/C (second compound 0.316 µM, first compound 0.949 µM): 80.4%; viability, T/C (second compound 0.316 µM, first compound 3 µM): 75.1%; viability, T/C (second compound 1 µM, first compound 0.949 µM): 72.8%; viability, T/C (second compound 1 µM, first compound 3 µM): 81.7%; viability, T/C [21]: 74%; viability, T/C (second compound 3.16 µM, first compound 0.949 µM): 72.9%; viability, T/C (second compound 3.16 µM, first compound 3 µM): 69%; viability, T/C [22]: 72.1%; viability, T/C [23]: 68.7%; viability, T/C [24]: 76.5%; viability, T/C [25]: 70.5%; viability, T/C (second compound 10 µM, first compound 0.949 µM): 66.4%; viability, T/C (second compound 10 µM, first compound 3 µM): 74.2%
COc1cc(Nc2ncc3c(n2)-c2ccc(Cl)cc2C(c2c(F)cccc2OC)=NC3)ccc1C(=O)O |  |  |  |  |  |  |  |  |  |  |  |  |  |  |  |  |  |  |  |  | viability, T/C (compound 0.00316 µM): 91.2% and 90.6%; viability, T/C (compound 0.01 µM): 76.9% and 59%; viability, T/C (compound 0.0316 µM): 35.7% and 26.8%; viability, T/C (compound 0.1 µM): 19.6% and 15.6%; viability, T/C (compound 0.316 µM): 18.6% and 13.9%; viability, T/C (compound 1 µM): 15.3% and 14.3%; IC50 (curve of compound): 0.0212 µM and 0.0138 µM
